Values after ≈ are worked out from the molar mass of the structure shown.
How the values were obtained:
ABTS scavenging activity = assay type: biochemical
Procedure: For the determination of the antioxidant activity of the synthesized compounds, the previously reported method for ABTS scavenging activity was used with slight modification. The stock solution of 2.4 mM of potassium per sulfate solution and 7 mM ABTS solution was prepared by mixing them in equal volumes for 16 h. The stock solution thus prepared was diluted using methyl alcohol to give absorption of 0.7 ± 0.02 units when studied at the wavelength of 734 nm using a spectrophotometer. Fresh ABTS solution was prepared for each ABTS scavenging assay. About 150 μL of the ABTS working solution was added to 50 μL of synthesized compounds and kept in darkness for 10 min. […] Methanol was used as blank, and standard ascorbic acid was run at the same time. The absorbance was calculated utilizing a microplate reader at 734 nm.

DPPH scavenging activity = assay type: biochemical
Procedure: The antioxidant assay of the synthesized compounds was conducted following the previously reported method. A freshly prepared DPPH solution (50 μL of 1.0 × 10^−3 M) was added in methyl alcohol. Methanol was used as a control in this experiment. The prepared mixture was subjected to incubation at 25°C for 30 min. A decrease in the DPPH free radical concentration was calculated using a spectrophotometer at a wavelength of 517 nm. After incubation ascorbic acid was used as a positive control. The antioxidant activity was determined as a percent (%) of inhibition using the formula given:(1) percent inhibition=absorbancecontrol−absorbancesample/absorbancecontrol×100.

α-glucosidase = assay: in vitro α-glucosidase inhibition; assay type: biochemical
Procedure: For in vitro α-glucosidase activity, samples were prepared by adding glucopyranoside to phosphate buffer solvent, and different concentrations of the synthesized compounds (31.25, 62.5, 125, 250, and 500 µg/ml), respectively, were added to this solution and then the enzyme glucosidase in distilled water (0.5 µg/ml) was also added to the above mixture. The reaction mixture thus prepared was subjected to incubation at 37°C for 20 minutes. The reaction was halted by adding HCl after incubation of the mixture. The intensity of the color was determined at 540 nm by spectrophotometer, and the formula given below was used for the determination of percent inhibition:(2) percent inhibition=absorbancecontrol−absorbancesample/absorbancecontrol×100.

α-amylase = assay: in vitro α-amylase inhibition; assay type: biochemical
Procedure: The starch solution was added, following incubation of the mixture, and the reaction mixture thus prepared was kept in water bath at 100°C for some time. Microplate reader measured the intensity of the color at 656 nm. Following formula was used to determine percentage inhibition:(3) percent inhibition=absorbancecontrol−absorbancesample/absorbancecontrol×100.

[1] = system: diabetic mice (by alloxan); assay: antidiabetic activity in diabetic mice (by alloxan); assay type: in vivo
Procedure: Alloxan was used for the induction of diabetes mellitus according to reported procedure. Recently prepared Alloxan (ALX) was injected intraperitoneally to animals, fasting for 16 h, at a single dose of (150 mg/kg). […] Only diabetic animals, having random blood glucose level more than 200 mg/dl, were selected for studies. All the experimental procedure were approved from the ethical committee department of pharmacy, University of Swabi via letter No; UOS-06/2021.
A total of 30 animals were used to determine the hypoglycemic effect of the synthesized derivatives of succinimide. The experimental animals were segregated in six groups […], having five (5) animals in each group. Group I was designated as normal group and was given normal saline I/P only. Group II was given Tween 80, and Group III was given standard drug (glibenclamide) after the induction of diabetes. Group IV, Group V, and Group VI were given the various doses of synthesized compounds, respectively. […]

mice = assay: oral glucose tolerance test (OGTT); assay type: in vivo; details: glucose 2 g/kg orally
Procedure: To perform OGTT mice fasted overnight were used including both control and treated mice. Glucose was administered orally at the dose of 2 g/kg against glibenclamide as standard drug. After administration of glucose, blood glucose level was calculated at time intervals of 0, 30, 60, and 120 min for assessment of the impact of exogenously given D-glucose on treated mice. OGTT was carried out 5 days before the completion of the study.
To perform OGTT, mice fasted overnight were used including both control and treated mice. Glucose was administered orally at the dose of 2 g/kg against glibenclamide as a standard drug. After administration of glucose, blood glucose level was calculated at time intervals of 0, 30, 60, and 120 min for assessment of the impact of exogenously given D-glucose on treated mice.

O=C1CCCCC1C1CC(=O)N(Cc2ccccc2)C1=O (stereo not drawn) [BW2, Benzyl-3-(2-Oxocyclohexyl) Pyrrolidine-2,5-Dione]
IC50 (ABTS) (ABTS scavenging activity): 12.87 µg/mL (≈ 45.1 µM) | (%) ABTS inhibitions (ABTS scavenging activity; 31.25 µg/ml): 57.40 ± 0.76^∗∗∗ % | (%) ABTS inhibitions (ABTS scavenging activity; 62.50 µg/ml): 61.35 ± 0.51^∗∗∗ % | (%) ABTS inhibitions (ABTS scavenging activity; 125 µg/ml): 66.90 ± 0.96^∗∗∗ % | (%) ABTS inhibitions (ABTS scavenging activity; 250 µg/ml): 71.08 ± 0.47^∗∗∗ % | (%) ABTS inhibitions (ABTS scavenging activity; 500 µg/ml): 76.85 ± 2.24^∗∗∗ % | IC50 (DPPH) (DPPH scavenging activity): 12.81 µg/mL (≈ 44.9 µM) | (%) DPPH inhibitions (DPPH scavenging activity; 31.25 µg/ml): 56.65 ± 1.34^∗∗∗ % | (%) DPPH inhibitions (DPPH scavenging activity; 62.50 µg/ml): 61.58 ± 1.12^∗∗∗ % | (%) DPPH inhibitions (DPPH scavenging activity; 125 µg/ml): 66.40 ± 0.25^∗∗∗ % | (%) DPPH inhibitions (DPPH scavenging activity; 250 µg/ml): 71.67 ± 1.20^∗∗∗ % | (%) DPPH inhibitions (DPPH scavenging activity; 500 µg/ml): 75.09 ± 0.32^∗∗∗ % | IC50 (α-glucosidase) (α-glucosidase): 10.81 µg/mL (≈ 37.9 µM) | % inhibitions (α-glucosidase) (α-glucosidase; 31.25 µg/ml): 62.44 ± 0.55^∗∗ % | % inhibitions (α-glucosidase) (α-glucosidase; 62.50 µg/ml): 68.47 ± 0.52^∗∗∗ % | % inhibitions (α-glucosidase) (α-glucosidase; 125 µg/ml): 74.39 ± 0.49^∗∗∗ % | % inhibitions (α-glucosidase) (α-glucosidase; 250 µg/ml): 81.34 ± 0.55^∗ % | % inhibitions (α-glucosidase) (α-glucosidase; 500 µg/ml): 87.36 ± 0.49^∗ % | IC50 (α-amylase) (α-amylase): 15.34 µg/mL (≈ 53.8 µM) | % inhibitions (α-amylase) (α-amylase; 31.25 µg/ml): 55.85 ± 0.17^∗∗∗ % | % inhibitions (α-amylase) (α-amylase; 62.50 µg/ml): 63.72 ± 0.11^∗∗∗ % | % inhibitions (α-amylase) (α-amylase; 125 µg/ml): 67.44 ± 0.15^∗∗∗ % | % inhibitions (α-amylase) (α-amylase; 250 µg/ml): 73.14 ± 0.49^∗∗∗ % | % inhibitions (α-amylase) (α-amylase; 500 µg/ml): 78.69 ± 0.14^∗∗∗ % | Change in body weight ([1]; dose 31.25 μg/kg): −6.8 Gm | Decrease in blood glucose after 15 days ([1]; dose 31.25 μg/kg): 35 mg/dL | Blood glucose level, 0 day ([1]; dose 31.25 μg/kg): 452 mg/dL | Blood glucose level, 4th day ([1]; dose 31.25 μg/kg): 448 mg/dL | Blood glucose level, 7th day ([1]; dose 31.25 μg/kg): 431 mg/dL | Blood glucose level, 10th day ([1]; dose 31.25 μg/kg): 425 mg/dL | Blood glucose level, 15th day ([1]; dose 31.25 μg/kg): 417 mg/dL | Change in body weight ([1]; dose 62.5 μg/kg): −4.6 Gm | Decrease in blood glucose after 15 days ([1]; dose 62.5 μg/kg): 58 mg/dL | Blood glucose level, 0 day ([1]; dose 62.5 μg/kg): 386 mg/dL | Blood glucose level, 4th day ([1]; dose 62.5 μg/kg): 359 mg/dL | Blood glucose level, 7th day ([1]; dose 62.5 μg/kg): 349 mg/dL | Blood glucose level, 10th day ([1]; dose 62.5 μg/kg): 336 mg/dL | Blood glucose level, 15th day ([1]; dose 62.5 μg/kg): 328 mg/dL | Change in body weight ([1]; dose 125 μg/kg): −3.7 Gm | Decrease in blood glucose after 15 days ([1]; dose 125 μg/kg): 68 mg/dL | Blood glucose level, 0 day ([1]; dose 125 μg/kg): 437 mg/dL | Blood glucose level, 4th day ([1]; dose 125 μg/kg): 431 mg/dL | Blood glucose level, 7th day ([1]; dose 125 μg/kg): 422 mg/dL | Blood glucose level, 10th day ([1]; dose 125 μg/kg): 394 mg/dL | Blood glucose level, 15th day ([1]; dose 125 μg/kg): 369 mg/dL | Change in body weight ([1]; dose 250 μg/kg): +3.4 Gm | Decrease in blood glucose after 15 days ([1]; dose 250 μg/kg): 111 mg/dL | Blood glucose level, 0 day ([1]; dose 250 μg/kg): 466 mg/dL | Blood glucose level, 4th day ([1]; dose 250 μg/kg): 461 mg/dL | Blood glucose level, 7th day ([1]; dose 250 μg/kg): 443 mg/dL | Blood glucose level, 10th day ([1]; dose 250 μg/kg): 407 mg/dL | Blood glucose level, 15th day ([1]; dose 250 μg/kg): 355 mg/dL | Change in body weight ([1]; dose 500 μg/kg): +7.4 Gm | Decrease in blood glucose after 15 days ([1]; dose 500 μg/kg): 199 mg/dL | Blood glucose level, 0 day ([1]; dose 500 μg/kg): 456 mg/dL | Blood glucose level, 4th day ([1]; dose 500 μg/kg): 402 mg/dL | Blood glucose level, 7th day ([1]; dose 500 μg/kg): 361 mg/dL | Blood glucose level, 10th day ([1]; dose 500 μg/kg): 303 mg/dL | Blood glucose level, 15th day ([1]; dose 500 μg/kg): 257 mg/dL | OGTT blood glucose, 0 minutes (mice; 0 minutes): 163.7 mg/dL | OGTT blood glucose, 30 minutes (mice; 30 minutes): 189.2 mg/dL | OGTT blood glucose, 60 minutes (mice; 60 minutes): 214.8 mg/dL | OGTT blood glucose, 120 minutes (mice; 120 minutes): 151.4 mg/dL

From PMC8979682, “Synthesis, Antioxidant, and Antidiabetic Activities of Ketone Derivatives of Succinimide” (Evidence-based Complementary and Alternative Medicine : eCAM, 2022)
